Results from US20100292283A1, “NOVEL PHENYL-ACETAMIDE AND PHENYL-PROPIONAMIDE DERIVATIVES USEFUL AS POTASSIUM CHANNEL MODULATORS” (priority 2007, published 2010).

Biological target: T1, BK channels (Homo sapiens, UniProt Q12791)
T1 construct: expressed in transfected cells; host or cells: Xenopus laevis oocytes
Assay: BK channel opening activity, two-electrode voltage clamp in Xenopus oocytes
Assay type: cell-based
Conditions: BK channels heterologously expressed in Xenopus oocytes, 0.01-31.6 μM compound
Procedure: In this example the BK channel opening activity of Compound 8 is determined using BK channels heterologously expressed in Xenopus iaevis oocytes.
The electrical current through the BK channel was measured using conventional two-electrode voltage clamp. BK currents were activated by repeating ramp protocols. In brief, the membrane potential was continuously changed from −120 mV to +120 mV within a 2 s period. The threshold for BK activation is approximately +30 mV under control conditions. Compounds were applied for 100 s during which the ramp protocol was repeated 10 times with 10 s intervals. In between the ramp protocols the membrane potential was clamped at −80 mV. The first three compound applications were control blanks where the current level is allowed to stabilize. […]
In order to evaluate the ability of the compounds to shift the BK activation curve towards lower membrane potentials, the BK current was transformed into conductance by using Ohm's law g=I/(Ememb−Erev), where g is the conductance, I is the current, Ememb is the membrane potential and Erev is the reversal potential. […] The control conductance level at a membrane potential of +100 mV was calculated, and the compound effect was evaluated as the potential difference, […], to the membrane potential at which the same conductance level was obtained in the presence of compound. […]

T1 sequence (Q12791 whole entry): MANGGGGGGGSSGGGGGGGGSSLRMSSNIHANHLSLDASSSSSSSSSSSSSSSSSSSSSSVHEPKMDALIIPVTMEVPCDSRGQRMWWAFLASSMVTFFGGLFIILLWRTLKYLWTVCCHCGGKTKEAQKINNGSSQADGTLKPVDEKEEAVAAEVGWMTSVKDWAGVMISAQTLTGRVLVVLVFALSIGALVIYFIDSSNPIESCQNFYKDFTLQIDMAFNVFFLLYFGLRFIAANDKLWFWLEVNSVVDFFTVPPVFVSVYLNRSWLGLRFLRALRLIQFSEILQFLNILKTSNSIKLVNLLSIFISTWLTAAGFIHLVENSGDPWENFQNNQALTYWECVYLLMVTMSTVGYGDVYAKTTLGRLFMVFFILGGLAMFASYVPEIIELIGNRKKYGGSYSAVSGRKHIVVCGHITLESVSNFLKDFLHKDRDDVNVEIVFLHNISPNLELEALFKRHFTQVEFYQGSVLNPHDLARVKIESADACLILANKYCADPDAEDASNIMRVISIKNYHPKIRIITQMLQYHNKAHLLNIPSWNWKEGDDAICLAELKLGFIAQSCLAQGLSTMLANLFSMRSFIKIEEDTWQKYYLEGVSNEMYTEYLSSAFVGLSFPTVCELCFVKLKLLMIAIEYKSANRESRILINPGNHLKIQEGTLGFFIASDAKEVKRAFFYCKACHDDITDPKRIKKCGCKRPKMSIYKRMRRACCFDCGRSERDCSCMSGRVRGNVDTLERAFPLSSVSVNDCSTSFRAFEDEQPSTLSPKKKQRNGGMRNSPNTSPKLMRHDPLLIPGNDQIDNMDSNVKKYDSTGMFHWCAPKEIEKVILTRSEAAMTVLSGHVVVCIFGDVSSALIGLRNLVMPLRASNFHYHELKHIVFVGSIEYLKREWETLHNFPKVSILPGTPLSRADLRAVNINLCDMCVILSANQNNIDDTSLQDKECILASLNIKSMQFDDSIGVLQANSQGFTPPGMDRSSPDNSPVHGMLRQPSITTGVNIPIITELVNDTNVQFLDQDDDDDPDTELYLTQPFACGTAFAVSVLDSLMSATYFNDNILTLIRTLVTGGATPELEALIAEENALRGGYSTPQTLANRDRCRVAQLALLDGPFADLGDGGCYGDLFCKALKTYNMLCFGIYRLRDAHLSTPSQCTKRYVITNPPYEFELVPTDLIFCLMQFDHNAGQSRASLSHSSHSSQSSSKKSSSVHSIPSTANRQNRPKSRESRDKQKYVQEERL

maximal left-shift for the BK-activation curve (ΔVmax) (fitted to sigmoidal logistic equation): -94 mV
EC50 (ramp -120 to +120 mV, ΔV at control conductance level of +100 mV, read-out: EC50 for the left-shift of the BKca-activation curve): 8.2 µM
Structure (SMILES): O=C(COc1cccc(Cl)c1)Nc1cc(Cl)ccc1-c1noc(=O)[nH]1 [Compound 8]
